Source: patent US10472320B2, “Process to prepare phenolic ethylenediamine diacetic acid compounds” (Akzo Nobel Chemicals International B.V., priority 2015, dated 2019)

Settings: for appearance of extracted aqueous ligand solution (precipitate formation): after last methyl isobutyl ketone extraction; for concentration of o,o-HBED in the extracted aqueous ligand solution / concentration of o,o-HBED at which a clear solution was obtained after addition of water: expressed as H4-o,o-HBED; for concentration of o,o-HBED in the extracted aqueous ligand solution: after phenol extraction with methyl isobutyl ketone; for concentration of o,o-HBED at which a clear solution was obtained after addition of water: dilution with water after precipitation
Experimental: (§1) Phenol was extracted from the reaction mixture with methyl isobutyl ketone (250 ml and 3 times 125 ml).
as §1
(§2) Phenol was extracted from the reaction mixture with methyl isobutyl ketone (75 ml and 3 times 50 ml).
(§3) Phenol was extracted from the reaction mixture with methyl isobutyl ketone (100 ml and 3 times 50 ml).
as §3, §2
Phenol was extracted from the reaction mixture with methyl isobutyl ketone (85 ml and 3 times 50 ml).
as §2

Row | Compound | appearance of extracted aqueous ligand solution (precipitate formation) | concentration of o,o-HBED in the extracted aqueous ligand solution | concentration of o,o-HBED at which a clear solution was obtained after addition of water
1 | O=C(O)CN(CCN(CC(=O)O)Cc1ccccc1O)Cc1ccccc1O [Example 7, N,N′-di(2-hydroxybenzyl)ethylenediamine-N,N′-diacetic acid] | remained clear without the formation of any precipitates | approximately 25% | 
2 | O=C(O)CN(CCN(CC(=O)O)Cc1ccccc1O)Cc1ccccc1O [Example 5, N,N′-di(2-hydroxybenzyl)ethylenediamine-N,N′-diacetic acid] | remained clear without the formation of any precipitates | approximately 22% | 
3 | O=C(O)CN(CCN(CC(=O)O)Cc1ccccc1O)Cc1ccccc1O [Example 3, N,N′-di(2-hydroxybenzyl)ethylenediamine-N,N′-diacetic acid] | became slightly turbid, but the solution could still be handled easily | approximately 22% | 
4 | O=C(O)CN(CCN(CC(=O)O)Cc1ccccc1O)Cc1ccccc1O [Example 4, N,N′-di(2-hydroxybenzyl)ethylenediamine-N,N′-diacetic acid] | remained clear without the formation of any precipitates | approximately 22% | 
5 | O=C(O)CN(CCN(CC(=O)O)Cc1ccccc1O)Cc1ccccc1O [Comparative Example 2, N,N′-di(2-hydroxybenzyl)ethylenediamine-N,N′-diacetic acid, reference compound] | turned turbid and a lot of product precipitated |  | 9.6%
6 | O=C(O)CN(CCN(CC(=O)O)Cc1ccccc1O)Cc1ccccc1O [Comparative Example 1, N,N′-di(2-hydroxybenzyl)ethylenediamine-N,N′-diacetic acid, reference compound] | soon a large amount of precipitate was formed |  | approximately 6.2%
7 | O=C(O)CN(CCN(CC(=O)O)Cc1ccccc1O)Cc1ccccc1O [Comparative Example 3, N,N′-di(2-hydroxybenzyl)ethylenediamine-N,N′-diacetic acid, reference compound] | turned turbid and a lot of product precipitated |  | 
8 | O=C(O)CN(CCN(CC(=O)O)Cc1ccccc1O)Cc1ccccc1O [Example 2, N,N′-di(2-hydroxybenzyl)ethylenediamine-N,N′-diacetic acid] | became slightly turbid, but the solution could still be handled easily | approximately 23% | 
9 | O=C(O)CN(CCN(CC(=O)O)Cc1ccccc1O)Cc1ccccc1O [Example 1, N,N′-di(2-hydroxybenzyl)ethylenediamine-N,N′-diacetic acid] |  | approximately 26% | 
10 | O=C(O)CN(CCN(CC(=O)O)Cc1ccccc1O)Cc1ccccc1O [Example 6, N,N′-di(2-hydroxybenzyl)ethylenediamine-N,N′-diacetic acid] |  | approximately 22% | 
